Test results: patent US11471460B2, “Autophagy modulators for use in treating cancer” (The United States of America,as represented by the …, priority 2017, dated 2022)
Where two headings read alike, the source gives them in different places.

Assays:
PIKFYVE = biological target: T1, PIKFYVE (Homo sapiens, UniProt Q9Y2I7); test: DiscoverX KINOMEscan dissociation constant; format: binding
T1 construct: purchased DiscoverX (KINOMEscan service, San Diego, Calif.)
Description: Each kinase was tagged with a unique DNA sequence that allowed the amount of protein bound to the solid support to be quantified by PCR. The top three targets for compound 1 were PIKFYVE, PIP4K2C and MTOR. […] Dissociation constants (Kd) were determined from the amount of kinase captured on the solid support as a function of the test compound concentration (nM) on a log10 scale. Mean Kd values (±range) are given for each compound. The ratio of PIP4K2C to PIKFYVE indicates the relative specificity for these two kinases.
To address this hypothesis, a panel of 468 human kinases were screened for their ability to bind compound 1. […] The top two candidates were PIKFYVE (phosphoinositide kinase FYVE-type zinc finger containing) and PIP4K2C (phosphatidylinositol-5-phosphate 4-kinase). PIKFYVE is a kinase that is essential for mouse development (49) and that prevents endosome enlargement and cytoplasmic vacuolization (50, 51). PIP4K2C is a kinase that is not essential for mouse growth and viability, but it is essential for the immune system (52), mTORC1 signaling (53), and regulation of autophagy (54). The third candidate was MTOR, a kinase that regulates autophagy (55). Therefore, the binding constants (Kd) for all five members of the compound 1-family were determined for each of these three proteins from two independent titration curves, as shown for compound 1.

osteosarcoma U2OS cells = test: Induction of cytoplasmic vacuoles (enlarged lysosomes) in U2OS cells, light microscopy; format: cell-based, human; conditions: for Concentration to induce LC3-II accumulation, inhibit proliferation or viability relative to concentration to observe vacuolization: same U2OS cells
Description: Vehicle is the concentration of DMSO that was introduced by addition of compounds.
These effects are dependent on the compound selected, its concentration and the length of time cells are exposed to the compound.
(§1) Cells were obtained from the American Type Culture Collection. BORCS5-KO HeLa cells have been described previously. Osteosarcoma U2OS were routinely seeded in 6-well plates (0.5×10^5 cells/well) and cultured in Dulbecco's Modified Eagle's medium supplemented with L-Glutamine, 4.5 g/L Glucose, Sodium Pyruvate, Phenol Red, and either heat-inactivated or normal 10% fetal calf serum at 37° C. in 5% CO2. Approximately 15-19 hours later, the indicated compound was added in 1:1000 dilutions. Results were the same using either heat-inactivated or normal fetal calf serum. Melanoma A375, embryonic kidney 293T and human foreskin fibroblast Hs27 cells were cultured in the same medium, except that cells were seeded into 12-well plates at 10^3 cells/well.
Phase contrast photographs were taken on an Olympus CKX41 microscope. Confocal photographs were taken on a Leica TCS-SP5II. For immunofluorescence microscopy, the cells were fixed in 4% paraformaldehyde (Electron Microscopy Sciences, 15714) in PBS for 12 min, permeabilized with 0.2% Triton X-100 in PBS for 10 min, and blocked in 0.2% BSA (Sigma-Aldrich, A7030) in PBS for 30 min at 37° C. For endogenous LC3 staining, cells were permeabilized in methanol for 20 min at −20° C. after the paraformaldehyde fixation. The cells were sequentially incubated with primary antibodies (LAMP1: Developmental Studies Hybridoma Bank; LC3 and LAMTOR4: Cell Signaling Technology; FLAG epitope: Sigma-Aldrich) and secondary antibodies conjugated to Alexa Fluor dyes (Life Technologies) diluted with 0.2% BSA in PBS for 30 min at 37° C. Coverslips were mounted on glass slides using Fluoromount-G (Electron Microscopy Sciences, 17984-24). Cells were imaged using a Zeiss LSM880 with AiryScan confocal microscope (Carl Zeiss AG, Oberkochen, Germany) or a Leica TCS-SP5II. The final composite images were created and properly analyzed for lysosomal size examination using ImageJ (NIH).

[1] = test system: LC3-II and p62 in U2OS cells; test: Accumulation of autophagosome markers LC3-II and p62, Western immuno-blotting; format: cell-based, human; conditions: U2OS cells
Description: Cells were cultured for 4 hrs before total cell extracts were subjected to Western immuno-blotting for LC3, p62 and β-actin. Blot was developed with film. […] (C) U2OS cells were cultured for the times indicated in the presence of 1.2 μM compound 1 to produce 80% of the maximum observed in FIG. 10A. Total cell extracts were assayed at the times indicated. […] All blots were stained with Ponceau S […].
Total cell lysates were prepared (in 4× dye). Proteins were fractionated at 200V in a NuPAGE 4-12% bis-tris polyacrylamide gel (NP0323, Novex) using NuPAGE MES running buffer (NP0002, Novex) and then stained with PageBlue (24260, Thermo Scientific) in order to quantify the relative amount of histones in each sample. […] Proteins were wet-transferred onto nitrocellulose membranes (162-0112, Bio-Rad) using NuPAGE transfer buffer (NP-0006-1, Novex) for 1 hour at 30V. Membranes were then stained with dilute Ponceau S solution, blocked in 5% milk for 30 minutes at room temperature, and incubated overnight at 4° C. in primary antibody. Membranes were washed with phosphate buffered saline with tween 20 (PBST) three times for 10 min. each, incubated with secondary antibodies in 5% milk for 1 hour, washed three times with PBST again, covered in ECL (SuperSignal West Pico chemiluminescent substrate, 34080, Thermo Scientific) and exposed to film (HyBlot ES, E3218, Denville Scientific).

melanoma A375 cells [2] = test: A375 cell proliferation (crystal violet plate assay); format: cell-based, human
[3] = test system: breast adenocarcinoma cells; test: Viability of breast adenocarcinoma cells; format: cell-based; conditions: Homo sapiens
Description: (§2) FIG. 18 summarizes results from 13 human cell lines. All cells were seeded at the same cell density in a rich culture medium and assayed under identical conditions. Compound 1 efficacy is the ratio of cell viability with compound 1 to cell viability with chloroquine derivatives.

embryonic kidney cells = test: Viability of embryonic kidney cells; format: cell-based; conditions: Homo sapiens
Description: as §2
as §1, with “Results were the same using either heat-inactivated or normal fetal calf serum.” left out

[4] = test system: human foreskin fibroblasts; test: Proliferation/viability of human foreskin fibroblasts; format: cell-based; conditions: Fibroblast
Description: Concentration of each compound in the plate assay is indicated below the compound 1 plate.
as §1, with “Results were the same using either heat-inactivated or normal fetal calf serum.” left out

melanoma A375 cells [5] = test: Cytoplasmic vacuolization of A375 cells; format: cell-based, human

T1 sequence (Q9Y2I7 whole entry): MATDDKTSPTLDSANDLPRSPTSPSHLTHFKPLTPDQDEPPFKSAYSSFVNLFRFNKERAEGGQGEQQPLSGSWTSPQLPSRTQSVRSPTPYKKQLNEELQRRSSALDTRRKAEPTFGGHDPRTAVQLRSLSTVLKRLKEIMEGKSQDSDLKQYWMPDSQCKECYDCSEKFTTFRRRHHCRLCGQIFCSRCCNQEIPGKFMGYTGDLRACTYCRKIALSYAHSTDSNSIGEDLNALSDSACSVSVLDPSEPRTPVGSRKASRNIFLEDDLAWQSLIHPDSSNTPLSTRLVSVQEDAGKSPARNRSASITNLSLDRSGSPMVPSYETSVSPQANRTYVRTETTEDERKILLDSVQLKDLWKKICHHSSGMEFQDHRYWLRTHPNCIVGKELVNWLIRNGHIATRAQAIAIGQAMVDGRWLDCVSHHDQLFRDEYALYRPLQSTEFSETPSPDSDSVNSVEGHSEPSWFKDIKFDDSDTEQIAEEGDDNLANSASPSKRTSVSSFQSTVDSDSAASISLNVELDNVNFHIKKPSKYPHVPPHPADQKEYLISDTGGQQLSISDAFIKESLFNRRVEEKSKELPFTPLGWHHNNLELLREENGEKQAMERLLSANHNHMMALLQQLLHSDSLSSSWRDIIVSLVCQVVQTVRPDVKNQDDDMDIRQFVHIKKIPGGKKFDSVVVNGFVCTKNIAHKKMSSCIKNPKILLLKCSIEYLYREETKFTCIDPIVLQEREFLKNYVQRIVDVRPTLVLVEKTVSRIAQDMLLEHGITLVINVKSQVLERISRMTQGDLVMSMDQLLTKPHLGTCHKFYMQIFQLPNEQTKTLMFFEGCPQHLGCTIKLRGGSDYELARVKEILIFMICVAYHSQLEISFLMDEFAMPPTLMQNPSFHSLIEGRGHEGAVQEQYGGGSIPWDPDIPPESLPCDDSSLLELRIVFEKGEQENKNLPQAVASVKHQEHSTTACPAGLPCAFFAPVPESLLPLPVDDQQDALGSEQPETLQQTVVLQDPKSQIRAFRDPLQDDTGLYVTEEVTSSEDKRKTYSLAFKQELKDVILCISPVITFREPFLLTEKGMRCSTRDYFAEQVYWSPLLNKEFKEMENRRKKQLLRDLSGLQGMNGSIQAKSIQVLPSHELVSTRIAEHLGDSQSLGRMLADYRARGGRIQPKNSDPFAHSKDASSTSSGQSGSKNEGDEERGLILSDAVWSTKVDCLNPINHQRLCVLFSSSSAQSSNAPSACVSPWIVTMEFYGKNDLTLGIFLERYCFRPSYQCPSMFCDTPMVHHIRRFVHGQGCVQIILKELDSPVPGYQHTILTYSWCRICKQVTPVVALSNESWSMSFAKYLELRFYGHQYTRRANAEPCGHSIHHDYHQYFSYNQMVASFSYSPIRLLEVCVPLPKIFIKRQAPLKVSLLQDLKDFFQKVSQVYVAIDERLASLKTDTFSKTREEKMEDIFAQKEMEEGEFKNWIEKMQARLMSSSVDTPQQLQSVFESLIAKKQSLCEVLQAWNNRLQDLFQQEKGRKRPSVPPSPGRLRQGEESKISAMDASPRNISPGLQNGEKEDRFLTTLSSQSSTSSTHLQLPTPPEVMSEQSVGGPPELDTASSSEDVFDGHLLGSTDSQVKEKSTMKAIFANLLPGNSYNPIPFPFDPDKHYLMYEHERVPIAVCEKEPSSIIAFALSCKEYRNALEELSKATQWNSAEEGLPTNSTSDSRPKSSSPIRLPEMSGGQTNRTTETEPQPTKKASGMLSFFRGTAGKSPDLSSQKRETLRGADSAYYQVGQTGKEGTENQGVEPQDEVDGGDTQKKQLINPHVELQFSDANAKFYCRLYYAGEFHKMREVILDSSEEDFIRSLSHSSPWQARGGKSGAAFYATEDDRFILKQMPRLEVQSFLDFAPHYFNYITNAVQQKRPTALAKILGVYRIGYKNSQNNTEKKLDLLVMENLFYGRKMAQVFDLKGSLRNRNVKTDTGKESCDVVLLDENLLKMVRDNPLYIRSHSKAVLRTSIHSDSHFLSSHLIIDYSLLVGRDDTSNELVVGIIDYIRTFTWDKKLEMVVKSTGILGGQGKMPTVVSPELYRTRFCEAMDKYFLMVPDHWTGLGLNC

Structure (SMILES): Cc1cccc(/C=N/Nc2cc(N3CCOCC3)nc(N3CCOCC3)n2)c1 [compound 4]
- Standing within the family for PIKFYVE binding (PIKFYVE): the most specific
- Concentration to induce LC3-II accumulation, inhibit proliferation or viability relative to concentration to observe vacuolization (osteosarcoma U2OS cells): about 10 fold

Structure (SMILES): CO/C1=C\C(C)=C\[C@@H](C)[C@@H](O)[C@@H](C)C/C(C)=C/C=C/[C@H](OC)[C@@H]([C@@H](C)[C@@H](O)[C@H](C)[C@@]2(O)C[C@@H](O)[C@H](C)[C@@H](C(C)C)O2)OC1=O [BafA1, Bafilomycin-A1, reference compound]
- Accumulation of LC3-II [1]: induced the accumulation of LC3-II
- Induction of vacuoles / enlarged lysosomes (osteosarcoma U2OS cells; U2OS cells): did not induce formation of enlarged lysosomes
- Effect on vacuole accumulation induced by the compounds of the invention (osteosarcoma U2OS cells; U2OS cells, BafA1 together with compound 1): prevented induction of vacuole accumulation

Structure (SMILES): Fc1ccc(Nc2nc(N3CCOCC3)nc(N3CCOCC3)n2)cc1Cl [compound 2]
- Concentration to induce LC3-II accumulation, inhibit proliferation or viability relative to concentration to observe vacuolization (osteosarcoma U2OS cells): two to three-fold

Structure (SMILES): C(=N\Nc1cc(N2CCOCC2)nc(N2CCOCC2)n1)/c1ccccc1 [compound 5]
- Concentration to induce LC3-II accumulation, inhibit proliferation or viability relative to concentration to observe vacuolization (osteosarcoma U2OS cells): about 15 fold

Structure (SMILES): Cc1cccc(/C=N/Nc2cc(N3CCOCC3)nc(OCCc3ccccn3)n2)c1 [Apilimod]
- Inhibition of proliferation of melanoma A375 cells (melanoma A375 cells [2]): effective

Structure (SMILES): CCc1ccc(Nc2nc(N3CCOCC3)nc(N3CCOCC3)n2)cc1 [compound 3]
- Kd (PIKFYVE; mean of two independent titration curves): 0.016 µM
- Concentration to induce LC3-II accumulation, inhibit proliferation or viability relative to concentration to observe vacuolization (osteosarcoma U2OS cells): two to three-fold

Structure (SMILES): CCN(CCO)CCCC(C)Nc1ccnc2cc(Cl)ccc12 (stereo not shown) [HCQ, hydroxychloroquine]
- EC50 ([3]; breast adenocarcinoma cells, read-out: EC50): > 10 µM
- EC50 (embryonic kidney cells; embryonic kidney cells, read-out: EC50): > 10 µM
- EC50 ([4]; human foreskin fibroblasts, read-out: EC50): > 10 µM
- Cytoplasmic vacuolization of A375 cells (melanoma A375 cells [5]): not observed
- Inhibition of proliferation of melanoma A375 cells (melanoma A375 cells [2]): inhibited A375 cell proliferation

Structure (SMILES): CCN(CC)CCCC(C)Nc1ccnc2cc(Cl)ccc12 (stereo not shown) [CQ, chloroquine]
- EC50 [3]: > 10 µM
- EC50 (embryonic kidney cells): > 10 µM
- EC50 ([4]; Homo sapiens): > 10 µM
- Cytoplasmic vacuolization of A375 cells (melanoma A375 cells [5]): not observed
- Inhibition of proliferation of melanoma A375 cells (melanoma A375 cells [2]): inhibited A375 cell proliferation

Structure (SMILES): Nc1ccc(C(=O)Nc2cccc(-c3nc(N4CCOCC4)c4oc5ncccc5c4n3)c2)cn1 [YM201636]
- Inhibition of proliferation of melanoma A375 cells (melanoma A375 cells [2]): effective

Structure (SMILES): Ic1cccc(/C=N/Nc2nc(N3CCOCC3)nc(N(c3ccccc3)c3ccccc3)n2)c1 [Vacuolin]
- Inhibition of proliferation of melanoma A375 cells (melanoma A375 cells [2]): effective
